Experimental data: patent EP2790511B1 (Merck Sharp & Dohme Corp., priority 2011, dated 2013)
pIC50: −log10 of the molar value.

Biological target: T1, hROMK (hKir1.1) (Homo sapiens, UniProt P48048)
T1 construct: expressed in transfected cells
T1 sequence (P48048 1-391): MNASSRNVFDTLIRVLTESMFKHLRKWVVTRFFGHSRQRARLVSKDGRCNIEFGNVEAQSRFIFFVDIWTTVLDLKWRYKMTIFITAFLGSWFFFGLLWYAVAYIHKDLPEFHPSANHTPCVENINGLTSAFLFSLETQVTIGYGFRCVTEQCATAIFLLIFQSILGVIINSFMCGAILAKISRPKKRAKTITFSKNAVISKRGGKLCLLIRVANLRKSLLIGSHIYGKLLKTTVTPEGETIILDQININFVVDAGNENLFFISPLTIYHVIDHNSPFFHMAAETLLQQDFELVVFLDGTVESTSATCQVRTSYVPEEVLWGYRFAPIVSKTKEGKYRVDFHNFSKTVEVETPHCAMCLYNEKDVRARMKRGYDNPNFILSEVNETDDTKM
Assay: Thallium Flux Assay
Assay type: cell-based
Conditions: HEK293 cells stably expressing hROMK (hKir1.1), FLIPR-Tetra; read-out: Thallium Flux IC50
Protocol: Cell Culture Conditions- HEK293 cells stably expressing hROMK (hKir1.1) were grown at 37°C in a 10%CO2 humidified incubator in complete growth media: Dulbecco's Modified Eagle Medium supplemented with non-essential amino acids, Penicillin/Streptomycin/Glutamine, G418 and FBS. At >80% confluency, aspirate the media from the flask and rinse with 10 mL Calcium/Magnesium-free PBS. […] To dislodge the cell, gently bang the side of the flask with your hand. Triturate the cells completely and then transfer the cells to 25 mL complete media. Centrifuge at 1,500 rpm for 6 min followed by resuspension in complete growth media and determine cell concentration. […] Under ideal growth conditions and appropriate tissue culture practices, this cell line is stable for 40-45 passages.
• FluxOR™ Reagent (Component A) • FluxOR™ Assay Buffer (Component B) - 10X Concentrate • PowerLoad™ Concentrate (Component C) - 100X Concentrate • Probenecid (Component D) - Lyophilized sample is kept at -20°C. Water soluble, 100X after solubilization in 1 mL water. […] Store at 4°C. • Thallium sulfate (Tl2SO4) Concentrate (Component G) - 50 mM in water. Store at 4°C • DMSO (dimethyl sulfoxide, Component H) - 1 mL (100%)
• 1000X FluxOR™ Reagent: Reconstitute a vial of component A in 100 µl DMSO; Mix well; Store 10 µl aliquots at -20°C • 1X FluxOR™ Assay Buffer: Dilute Component B 10-fold with water; Adjust pH to 7.4 with Hepes/NaOH; Filter and store at 4°C • Probenecid/Assay Buffer: 100 mL of 1X FluxOR™ Assay Buffer; 1 mL of reconstituted component D; Store at 4°C • Loading Buffer (per microplate): 10 µl 1000X FluxOR™ Reagent; 100 µl component C; 10 mL Probenecid/Assay Buffer • Compound Buffer (per microplate): 20 mL Probenecid/Assay Buffer; 0.3 mM ouabain (10 mM ouabain in water can be stored in amber bottle/aluminum foil at room temperature); Test compound • 1X FluxOR™Chloride-Free Buffer: Prepare 1X working solution in water. Can be stored at room temperature • Stimulant Buffer (prepared at 5X final concentration in 1X FluxOR™Chloride-Free Buffer): 7.5 mM Thallium sulfate and 0.75 mM Potassium sulfate (to give a final assay concentration of 3 mM Thallium/ 0.3 mM Potassium). Store at 4°C when not in use. If kept sterile, this solution is good for months.
Assay protocol- The ROMK channel functional thallium flux assay is performed in 384 wells, using the FLIPR-Tetra instrument. HEK-hKir1.1 cells are seeded in Poly-D-Lysine microplates and kept in a 37°C-10%CO2 incubator overnight. On the day of the experiment, the growth media is replaced with the FluxOR™ reagent loading buffer and incubated, protected from light, at ambient temperature (23-25°C) for 90 min. The loading buffer is replaced with assay buffer ± test compound followed by 30 min incubation at ambient temperature, where the Thallium/Potassium stimulant is added to the microplate.
• 1. Seed HEK-hKir1.1 cells (50 µl at 20,000 cells/well) in 384-well PDL coated Microplates • 2. Allow cells to adhere overnight in humidified 37°C/10%CO2 incubator • 3. Completely remove cell growth media from microplate and replace with 25 µl loading buffer • 4. Incubate Microplate at room temperature, protected form light, for 90 min • 5. Remove loading buffer and replace with 25 µl 1x Assay Buffer ± test compound. • 6. Incubate microplate at room temperature, protected form light, for 30 min • 7. […] Excitation = 400 nm, Emission = 460 & 580 nm. Collect data for ∼ 10 min.
Data Calculation- The fluorescence intensity of wells containing 3 µM of a standard control ROMK inhibitor of the present invention is used to define the ROMK-sensitive component of thallium flux. Fluorescence in the presence of test compounds is normalized to control values to provide % fluorescence change.

Compound	pIC50
Cc1c([C@H]2CN3CCN(C(=O)Cc4cncc(-n5cnnn5)c4)C[C@H]3CO2)ccc(F)c1C#N [Example 101, 6-fluoro-2-methyl-3-[(3S,9aS)-8-{[5-(1H-tetrazol-1-yl)pyridin-3-y]acetyl}octahydropyrazino[2,1-c][1,4]oxazin-3-yl]benzonitrile]	6.74
N#Cc1c(F)ccc([C@@H]2CN3CCN(C(=O)Cc4ccc(-n5cnnn5)nc4)C[C@H]3CO2)c1Cl [Example 51, 2-chloro-6-fluoro-3-[(3R,9aS)-8-{[6-(1H-tetrazol-1-yl)pyridin-3-yl]acetyl}octahydropyrazino[2,1-c][1,4]oxazin-3-yl]benzonitrile]	7.30
Cc1c([C@H]2CN3CCN(C(=O)Cc4ccc(-n5cnnn5)nc4)C[C@H]3CCO2)ccc(F)c1C#N (single isomer, unassigned) [Example 169]	6.74
N#Cc1c(F)ccc([C@@H]2CN3CCN(C(=O)Cc4ccc(-n5cnnn5)cn4)C[C@H]3CO2)c1Cl [Example 53]	7.22
N#Cc1c(F)cc([C@@H]2CN3CCN(C(=O)Cc4ccc(-n5cnnn5)nc4)C[C@@H]3CO2)cc1F [Example 107, 2,6-difluoro-4-[(3R,9aR)-8-{[6-(1H-tetrazol-1-yl)pyridin-3-yl]acetyl}octahydropyrazino[2,1-c][1,4]oxazin-3-yl]benzonitrile]	6.77
COc1cc(-n2cnnn2)cnc1CC(=O)N1CCN2C[C@@H](c3ccc(F)c(C#N)c3C)OC[C@H]2C1 [Example 124, 6-fluoro-3-[(3R,9aR)-8-{[3-methoxy-5-(1H-tetrazol-1-vl)pvridin-2-yl]acetyl}octahydropyrazino[2,1-c][1,4]oxazin-3-yl]-2-methylbenzonitrile]	6.48
C[C@H]1Cc2cc([C@]3(C)CN4CCN(C(=O)Cc5ccc(-n6cnnn6)nc5)C[C@H]4CO3)ccc2C(=O)O1 [Example 106, (3S)-3-methyl-6-[(3R,9aS)-3-methyl-8-{[6-(1H-tetrazol-1-yl)pyridin-3-yl]acetyl}octahydropyrazino[2,1-c][1,4]oxazin-3-yl]-3,4-dihydro-1H-isochromen-1-one]	6.38
O=C1OCc2cc([C@@H]3CN4CCN(C(=O)Cc5ccc(-n6cnnn6)cn5)C[C@H]4CO3)ccc21 [Example 27, 5-[(3R,9aS)-8-{[5-(1H-tetrazol-1-yl)pyridin-2-yl]acetyl}octahydropyrazino[2,1-c][1,4]oxazin-3-yl]-2-benzofuran-1(3H)-one]	7.00
N#Cc1c(F)cc([C@H]2CN3CCN(C(=O)Cc4ccc(-n5cnnn5)nc4)C[C@@H]3CO2)cc1F [Example 108, 2,6-difluoro-4-[(3S,9aR)-8-{[6-(1H-tetrazol-1-yl)pyridin-3-yl]acetyl}octahydropyrazino[2,1-c][1,4]oxazin-3-yl]benzonitrile]	6.31
Cc1c([C@@H]2CN3CCN(C(=O)Nc4ccc(-n5cnnn5)nc4)C[C@H]3CO2)ccc(F)c1C#N [Example 198, (3R,9aS)-3-(3-cyano-4-fluoro-2-methylphenyl)-N-[6-(1H-tetrazol-1-yl)pyridin-3-yl]hexahydropyrazino[2,1-c][1,4]oxazine-8(1H)-carboxamide]	6.80
Cc1c([C@H]2CN3CCN(C(=O)Cc4cnc(-n5cnnn5)nc4)C[C@H]3CO2)ccc2c1COC2=O [Example 15, 4-methyl-5-[(3S,9aS)-8-{[2-(1H-tetrazol-1-yl)pyrimidin-5-yl]acetyl}octahydropyrazino[2,1-c][1,4]oxazin-3-yl]benzofuran-1(3H)-one]	6.85
N#Cc1cc([C@@H]2CN3CCN(C(=O)Cc4cnc(-n5cnnn5)nc4)C[C@H]3CN2)ccc1F [Example 197, 2-fluoro-5-[(3R,9aR)-8-{[2-(1H-tetrazol-1-yl)pyrimidin-5-yl]acetyl}octahydro-2H-pyrazino[1,2-a]pyrazin-3-yl]benzonitrile]	6.62
N#Cc1c(F)ccc([C@H]2CN3CCN(C(=O)Cc4cnc(-n5cnnn5)nc4)C[C@@H]3CO2)c1Cl [Example 126, 2-chloro-6-fluoro-3-[(3S,9aR)-8-{[2-(1H-tetrazol-1-yl)pyrimidin-5-yl]acetyl}octahydropyrazino[2,1-c][1,4]oxazin-3-yl]benzonitrile]	6.85
Cc1c([C@H]2CN3CCN(C(=O)Cc4ccnc(-n5cnnn5)c4)C[C@H]3CO2)ccc(F)c1C#N [Example 100]	6.72
COc1cc(F)c([C@@H]2CN3CCN(C(=O)Cc4cnc(-n5cnnn5)nc4)C[C@H]3CO2)cc1C#N [Example 168, 4-fluoro-2-methoxy-5-[(3R,9aS)-8-{[2-(1H-tetrazol-1-yl)pyrimidin-5-yl]acetyl}octahydropyrazino[2,1-c][1,4]oxazin-3-yl]benzonitrile]	6.46
Cc1cc2c(cc1[C@H]1CN3CCN(C(=O)Cc4ccc(-n5cnnn5)nc4)C[C@H]3CO1)COC2=O [Example 73, 6-methyl-5-[(3S,9aS)-8-{[6-(1H-tetrazol-1-yl)pyridin-3-yl]acetyl}octahydropyrazino[2,1-c][1,4]oxazin-3-yl]-2-benzofuran-1(3H)-one]	6.64

Same assay, conditions: Thallium Flux IC50

Compound	pIC50
Cc1c(C#N)cccc1[C@@H]1CN2CCN(C(=O)Cc3ccc(-n4cnnn4)nc3)C[C@@H]2CO1 [Example 117, 2-methyl-3-[(3R,9aR)-8-{[6-(1H-tetrazol-1-yl)pyridin-3-yl]acetyl}octahydropyrazino[2,1-c] [1,4]oxazin-3-yl]benzonitrile]	6.66
Cc1c([C@@H]2CN3CCN(C(=O)Cc4ccc(-n5cnnn5)cn4)C[C@H]3CO2)csc1C#N [Example 70, 3-methyl-4-[(3R,9aS)-8-{[5-(1H-tetrazol-1-yl)pyridin-2-yl]acetyl}octahydropyrazino[2,1-c][1,4]oxazin-3-yl]thiophene-2-carbonitrile]	6.57
N#Cc1c(F)ccc([C@H]2CN3CCN(C(=O)Cc4ccc(-n5cnnn5)nc4)C[C@H]3CO2)c1C1CC1 [Example 181, 2-cyclopropyl-6-fluoro-3-[(3S,9aS)-8-{[6-(1H-tetrazol-1-vl)pvridin-3-yl]acetyl}octahydropyrazino[2,1-c][1,4]oxazin-3-yl]benzonitrile]	6.42
Cc1c([C@@H]2CN3CCN(C(=O)Cc4ccc(-n5nnnc5C)cn4)C[C@H]3CO2)ccc(F)c1C#N [Example 162, 6-fluoro-2-methyl-3-[(3R,9aS)-8-{[5-(5-methyl-1H-tetrazol-1-vl)pvridin-2-yl]acetyl}octahydropyrazino[2,1-c][1,4]oxazin-3-yl]benzonitrile]	6.77
Cc1c([C@H]2CN3CCN(C(=O)Cc4cnc(-n5cnnn5)nc4)C[C@H]3CCO2)ccc(F)c1C#N (single isomer, unassigned) [Example 172]	6.66
